Data on 14 compounds can be found in PubChem BioAssay (NCI).

Holding throughout (experiment): NCI-60 cell line screen, 48 h
Assay [1] deals with 786-0 renal.
Assay [2] concerns COLO 205 colon.
Assay [3] deals with EKVX NSCLC.
Assay [4] has as its system HCT-15 colon.
Assay [5] deals with HL-60(TB) leukemia.
The subject of assay [6] is HS 578T breast.
Assay [7] deals with HT29 colon.
The test system of assay [8] is K-562 leukemia.
For assay [9], the system named is LOX IMVI melanoma.
The test system of assay [10] is M14 melanoma.
The subject of assay [11] is OVCAR-3 ovarian.
For assay [12], the system named is OVCAR-4 ovarian.
Assay [13] relates to OVCAR-8 ovarian.
The test system of assay [14] is SK-OV-3 ovarian.
Assay [15] deals with SN12C renal.
For assay [16], the system named is SR leukemia.
In assay [17] the test system is T-47D breast.
For assay [18], the system named is TK-10 renal.
The test system of assay [19] is UACC-62 melanoma.
Assay [20] has as its system HCC-2998 colon.

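Interpolation was linear, between the two tested concentrations surrounding the appropriate level; five concentrations were tested over 48 hours in 96-well plates. TGI marks complete inhibition of growth.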

In the case of `COC(=O)Cc1c(/C=C/C(C)(C)n2cnc(CCN3C(=O)CCC3=O)c2)[nH]c2ccccc12`, the TGI was above 100 µM in [1]; above 100 µM in assay [2]; above 100 µM in [3]; above 100 µM in [4]; above 100 µM in assay [5]; 89.3 µM in assay [6]. The TGI in assay [7], in assay [8], in assay [9], in [10], in assay [11] and in assay [12] was above 100 µM in each case. The TGI in assay [13] is above 100 µM; in [14] it was above 100 µM; in assay [15], above 100 µM; in assay [16], above 100 µM; in [17], 60.1 µM; in assay [18], above 100 µM. In assay [19], this compound had a TGI above 100 µM.
With `CC1OC(OC2C(CO)OC(O[C@H]3CC[C@@]4(C)C(=CC[C@H]5[C@@H]6C[C@@H]7O[C@](O)(CC[C@H](CO)COC8OC(CO)C(O)C(O)C8O)[C@@H](C)[C@@H]7[C@@]6(C)CC[C@@H]54)C3)C(OC3OC(C)C(O)C(O)C3O)C2O)C(O)C(O)C1O` (stereo partly drawn), the TGI in assay [1], in assay [2], in assay [3], in assay [20], in assay [4] and in assay [6] was above 100 µM in each case. Besides, the TGI in assay [7], in assay [8], in assay [9], in assay [10], in assay [11] and in assay [12] was above 100 µM throughout. Besides, the TGI in [13], in [14], in [15], in [16], in assay [17] and in assay [18] was above 100 µM each time. In [19], this compound showed a TGI above 100 µM.
Regarding `CCC12CC(c3ccccc3)C(C(=O)N1)C(=O)N2` (stereo not drawn), the TGI in assay [1], in [2], in assay [3], in [4], in [5] and in assay [6] was above 100 µM each time. For the same compound, the TGI in assay [7], in [8], in assay [10], in [11], in assay [12] and in assay [13] was above 100 µM each time. For the same compound, the TGI in assay [14], in assay [15], in assay [16], in assay [17] and in [19] was above 100 µM in each case.
In the case of `O=C(Nc1sccc1S(=O)(=O)c1ccc(Cl)cc1)c1ccccc1`, the TGI in assay [1], in assay [2], in [3], in assay [4], in [5] and in [6] was above 100 µM each time. In addition, the TGI in [7], in assay [8], in [9], in assay [10], in assay [11] and in [12] was above 100 µM each time. Also, the TGI in [13], in [14], in assay [15], in [16], in assay [17] and in [18] was above 100 µM in each case. In assay [19], this compound had a TGI above 100 µM.
In the case of `COc1cc([C@@H]2c3cc4c(cc3[C@@H](OC3OC5COC(C)OC5C(OC(=O)CN5CCN(C)CC5)C3OC(=O)CN3CCN(C)CC3)C3COC(=O)[C@@H]32)OCO4)cc(OC)c1OC(=O)CN1CCN(C)CC1` (stereo partly drawn), the TGI in assay [1] is 52.8 µM; in assay [2] it was above 100 µM; in [3] it was above 100 µM; in assay [20], above 100 µM; in assay [4], above 100 µM; in assay [5], 42.6 µM. In addition, the TGI in [6], in assay [7], in assay [8], in assay [9], in assay [10] and in assay [11] was above 100 µM each time. The TGI in assay [12], in assay [13], in assay [14], in [15], in assay [17] and in assay [18] was above 100 µM throughout. In [19], this compound had a TGI above 100 µM.
`CS/C(=N\S(=O)(=O)c1cc(C)c(Cl)cc1Cl)NNc1cnc2ccccc2n1`: the TGI in assay [1], in assay [2], in assay [3], in [20], in [4] and in assay [5] was above 100 µM in each case. For the same compound, the TGI in [6], in assay [7], in assay [8], in [9], in assay [10] and in assay [11] was above 100 µM in each case. For the same compound, the TGI in assay [12], in assay [13], in assay [14], in assay [15], in assay [17] and in assay [18] was above 100 µM throughout. In assay [19], this compound returned a TGI above 100 µM.
`CCC(CCN)(CCN)[N+](=O)[O-]`: the TGI in assay [1], in assay [2], in assay [3], in [4], in assay [5] and in [6] was above 100 µM throughout. Besides, the TGI in [7], in [8], in assay [10], in assay [13], in assay [14] and in [15] was above 100 µM throughout. Besides, the TGI in assay [16], in assay [17] and in assay [19] was above 100 µM in each case.
In the case of `C/C(=N\Nc1nc2ccccc2s1)c1cnccn1`, the TGI was above 100 µM in assay [1]; above 36.9 µM in [2]; 5 µM in assay [3]; 31.9 µM in assay [20]; 18.2 µM in [4]; 20 µM in [6]. The TGI in [7] is 2.81 µM; in [8], above 34.1 µM; in assay [10], 12.3 µM; in assay [11], 17.4 µM; in [12], above 100 µM; in assay [13] it was 5.86 µM. For the same compound, the TGI is above 27.7 µM in assay [14]; above 80.8 µM in [15]; above 100 µM in assay [16]; above 100 µM in assay [17]; above 60.6 µM in assay [19].
For `CC[C@@H]1CC[C@@H]2[C@H](CC[C@]3(C)[C@@H](O)CC[C@@H]23)[C@H]1CO`, the TGI in [1] was above 100 µM; in assay [2], above 100 µM; in [3], above 100 µM; in [20], above 100 µM; in assay [4] it was above 100 µM; in assay [5] it was 85.8 µM. The TGI in assay [6], in assay [7], in assay [8], in assay [9], in [10] and in [11] was above 100 µM throughout. Also, the TGI in assay [12], in [13], in assay [14], in [15], in assay [17] and in assay [18] was above 100 µM each time. In [19], this compound showed a TGI above 100 µM.
On to `CCOC(=O)c1c[nH]cc1-c1cn(S(=O)(=O)c2ccccc2)cc1C`, for which the TGI in assay [1] was above 100 µM; in [2] it was 42.4 µM; in [3] it was 71.3 µM; in assay [20], 41 µM; in [4] it was 76.4 µM; in [5], above 100 µM. The TGI in assay [6] turned out to be 46.2 µM; in assay [7], 52.8 µM; in assay [8], 86.4 µM; in assay [9], 71.9 µM; in [10], 44.3 µM; in assay [11], 61.8 µM. In addition, the TGI in [12] is above 100 µM; in [13], above 100 µM; in assay [14], above 100 µM; in assay [15], 59.6 µM; in [17], above 100 µM; in [18] it was above 100 µM. Further, the TGI in assay [19] is 33.6 µM.
For the compound `N#Cc1cc(N(CCCl)CCCl)c([N+](=O)[O-])cc1[N+](=O)[O-]`, the TGI in assay [1] is above 100 µM; in assay [2] it was above 100 µM; in assay [3], above 100 µM; in assay [4], above 100 µM; in assay [5], 80.9 µM; in assay [6], above 100 µM. Moreover, the TGI in assay [7], in assay [8], in assay [9], in assay [10], in assay [11] and in assay [12] was above 100 µM in each case. In addition, the TGI was above 100 µM in [13]; above 100 µM in assay [14]; above 100 µM in assay [15]; 35.8 µM in [16]; 57.2 µM in assay [17]; above 100 µM in assay [18]. The compound also showed a TGI in [19] above 100 µM.
With `CCC1c2[nH]c3ccccc3c2C[C@H]2C(=O)NC(CCCCNC(=O)OC(C)(C)C)C(=O)N12` (stereo partly drawn), the TGI in assay [1] was 81.3 µM; in [2] it was 66.9 µM; in assay [3], above 100 µM; in assay [4], above 100 µM; in assay [5], 59.6 µM; in assay [6], 76.2 µM. The TGI in [7] is 99.3 µM; in [8], above 100 µM; in [9], 54.7 µM; in assay [10], 40.9 µM; in [11], 63.4 µM; in assay [12] it was above 100 µM. The TGI in assay [13] is above 100 µM; in assay [14], above 100 µM; in [15], above 100 µM; in [16] it was 92.8 µM; in assay [17], above 100 µM; in [18], above 100 µM. In addition, the TGI in assay [19] came out at 49.2 µM.
As to `CCOC(=O)c1nnsc1NN=C(C)C`, the TGI in assay [1], in assay [2], in assay [3], in assay [20], in [4] and in assay [5] was above 100 µM each time. The TGI in assay [6], in [7], in [8], in assay [9], in [10] and in assay [11] was above 100 µM each time. Further, the TGI in assay [12], in assay [13], in assay [14], in assay [15], in assay [17] and in assay [18] was above 100 µM in each case. The compound further came in with a TGI in assay [19] above 100 µM.
Turning to `CC1(C)CCCCCCC2CC2CCCCCC(C)(C)C1=O` (stereo not drawn), the TGI is above 100 µM in assay [1]; above 100 µM in [2]; above 100 µM in [3]; above 100 µM in assay [4]; 32.7 µM in assay [5]; above 100 µM in assay [6]. Besides, the TGI in assay [7] is above 100 µM; in assay [8], 98.1 µM; in [9] it was 63.6 µM; in assay [10], above 100 µM; in assay [11], above 100 µM; in assay [12], above 100 µM. The TGI in [13] was above 100 µM; in [14], above 100 µM; in [15], above 100 µM; in [16] it was 20.7 µM; in assay [17] it was above 100 µM; in [18], above 100 µM. Further, the TGI in assay [19] is above 100 µM.
